Data set [1] has as its target T1, AEP (Rattus norvegicus, UniProt Q9R0J8).
T1 construct: endogenous in cells; host or cells: primary rat cortical neurons
T1 sequence (Q9R0J8 18-435): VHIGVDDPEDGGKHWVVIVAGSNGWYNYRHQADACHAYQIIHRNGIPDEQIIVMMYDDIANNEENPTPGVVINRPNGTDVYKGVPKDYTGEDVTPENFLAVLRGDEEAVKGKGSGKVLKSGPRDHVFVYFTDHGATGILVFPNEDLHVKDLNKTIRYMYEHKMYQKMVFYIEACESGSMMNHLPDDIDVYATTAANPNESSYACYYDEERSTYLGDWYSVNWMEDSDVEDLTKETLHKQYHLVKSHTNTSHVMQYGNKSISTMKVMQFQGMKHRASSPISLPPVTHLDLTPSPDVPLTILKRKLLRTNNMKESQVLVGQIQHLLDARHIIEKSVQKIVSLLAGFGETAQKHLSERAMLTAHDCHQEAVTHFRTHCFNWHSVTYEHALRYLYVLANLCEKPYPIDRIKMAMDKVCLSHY
In words: AEP inhibition in cultured primary neurons. Type of data set: cell-based.

The next data set can be described thus: Solubility (pH 7.4, PBS). It counts as physicochemical.
Data set [2] can be described thus: Stability in human liver microsomes. It counts as in vitro ADME. The conditions noted are these: for half-life: read-out: Stability-Microsomes T1/2.
Data set [3] can be described thus: Stability in mouse liver microsomes. Type of data set: in vitro ADME. The conditions noted are these: for half-life: read-out: Stability-Microsomes T1/2.
Data set [4] can be described thus: Stability in human hepatocytes. Type of data set: in vitro ADME. The conditions noted are these: for half-life: read-out: Stability-Hepatocytes T1/2.
The nature of data set [5]: Stability in rat hepatocytes. It counts as in vitro ADME.
Data set [6] can be described thus: Stability in human plasma. The conditions noted are these: read-out: Stability-Plasma T1/2. It counts as in vitro ADME.
A short description of data set [7]: Stability in mouse plasma. As to conditions: read-out: Stability-Plasma T1/2. Type of data set: in vitro ADME.
The nature of data set [8]: Plasma protein binding, human. It counts as in vitro ADME.
A short description of data set [9]: Plasma protein binding, mouse. Type of data set: in vitro ADME.
Data set [10] can be described thus: PAMPA-BBB permeability assay. Type of data set: in vitro ADME. As to conditions: read-out: Permeability-PAMPA-BBB Pe.
The nature of another data set: Caco-2 permeability. As to conditions: human; for Papp A→B: first value of the cell. Type of data set: in vitro ADME.
For a further data set, the target named is T2, P-glycoprotein (MDR1) (Homo sapiens, UniProt P08183).
T2 construct: expressed in transfected cells; host or cells: MDCKII
Description: MDR1-MDCKII permeability assay (P-glycoprotein efflux). It counts as in vitro ADME. As to conditions: dog, MDCK-MDR1; for Papp A→B: first value in brackets; for Papp B→A: second value in brackets.

The next data set addresses hERG K+ channel (Homo sapiens, UniProt Q12809). Description: hERG inhibition assay.
Data set [11] can be described thus: Plasma and brain concentrations after acute oral treatment of 3xTg mice. It counts as in vivo. The conditions noted are these: both sexes, mouse, plasma, 7.5 mg/kg, P.O. 7.5 mg/kg, read-out: Concentration in plasma, Serum Mean. The source says: Blood and brain tissues were collected at 0, 0.08, 0.25, 0.5, 1, 2, 4, and 8 h post-administration.
The target of data set [12] is T3, AEP (Mus musculus, UniProt O89017).
T3 construct: from tissue; host or cells: brain / hippocampus of 3xTg mice
T3 sequence (O89017 18-435): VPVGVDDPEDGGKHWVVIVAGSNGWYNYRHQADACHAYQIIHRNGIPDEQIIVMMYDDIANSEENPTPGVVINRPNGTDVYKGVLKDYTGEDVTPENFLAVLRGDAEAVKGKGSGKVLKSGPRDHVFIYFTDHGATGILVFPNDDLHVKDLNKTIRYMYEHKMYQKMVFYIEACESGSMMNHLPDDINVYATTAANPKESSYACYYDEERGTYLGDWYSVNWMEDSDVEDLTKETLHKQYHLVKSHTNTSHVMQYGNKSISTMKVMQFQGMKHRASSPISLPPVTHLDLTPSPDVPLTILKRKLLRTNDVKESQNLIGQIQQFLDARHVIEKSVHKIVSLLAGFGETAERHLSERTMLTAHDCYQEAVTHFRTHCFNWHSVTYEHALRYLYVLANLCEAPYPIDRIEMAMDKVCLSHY
Description: Acute PD in 3xTg mice: brain AEP enzymatic activity and immunoblotting. Type of data set: in vivo. As to conditions: 2 h.

Data set [13] has as its target T3, AEP. Description: Chronic one-month oral treatment of 3xTg mice: AEP activation and substrate cleavage. Type of data set: in vivo. The conditions noted are these: 7.5 mg/kg P.O. daily.
In a further data set the test system is 3xTg mice. Description: Y-maze test in 3xTg mice. It counts as in vivo, mouse. The conditions noted are these: 7.5 mg/kg P.O. daily, one month. The text has this: Blood and brain tissues were collected at 0, 0.08, 0.25, 0.5, 1, 2, 4, and 8 h post-administration. For acute pharmacodynamic (PD) assessments, male and female 3xTg mice received oral doses of NP-11a-isopropyl at 7.5 mg/kg or 15 mg/kg, and blood and brain samples were collected 2 h after treatment.
The Y-maze test was employed to evaluate spatial working memory and spontaneous alternation behavior, a measure of natural exploratory pattern integrity. The apparatus comprised three symmetrical opaque arms (A, B, C; 30 cm length × 8 cm width × 15 cm height) intersecting at 120° angles to form a Y-shaped configuration. Mice were habituated to the maze during a 5-min acclimatization period to minimize novelty-induced anxiety. Following habituation, spontaneous exploration was recorded for 8 min using an overhead camera, with all trials conducted under consistent low-light conditions to reduce environmental stress. EthoVision XT 12 software (Noldus, Wageningen, The Netherlands) quantified total arm entries, entry sequences, and alternation patterns (consecutive entries into three distinct arms without repetition). The maze was thoroughly cleaned with 70 % ethanol between trials to eliminate olfactory cues.

On the set-up of data set [14]: method as in PMID 38030711. As to conditions: cited from earlier work.
The target of another data set is T4, BCRP (Homo sapiens, UniProt Q9UNQ0).
T4 construct: endogenous in cells; host or cells: Caco-2
T4 sequence (Q9UNQ0 1-655): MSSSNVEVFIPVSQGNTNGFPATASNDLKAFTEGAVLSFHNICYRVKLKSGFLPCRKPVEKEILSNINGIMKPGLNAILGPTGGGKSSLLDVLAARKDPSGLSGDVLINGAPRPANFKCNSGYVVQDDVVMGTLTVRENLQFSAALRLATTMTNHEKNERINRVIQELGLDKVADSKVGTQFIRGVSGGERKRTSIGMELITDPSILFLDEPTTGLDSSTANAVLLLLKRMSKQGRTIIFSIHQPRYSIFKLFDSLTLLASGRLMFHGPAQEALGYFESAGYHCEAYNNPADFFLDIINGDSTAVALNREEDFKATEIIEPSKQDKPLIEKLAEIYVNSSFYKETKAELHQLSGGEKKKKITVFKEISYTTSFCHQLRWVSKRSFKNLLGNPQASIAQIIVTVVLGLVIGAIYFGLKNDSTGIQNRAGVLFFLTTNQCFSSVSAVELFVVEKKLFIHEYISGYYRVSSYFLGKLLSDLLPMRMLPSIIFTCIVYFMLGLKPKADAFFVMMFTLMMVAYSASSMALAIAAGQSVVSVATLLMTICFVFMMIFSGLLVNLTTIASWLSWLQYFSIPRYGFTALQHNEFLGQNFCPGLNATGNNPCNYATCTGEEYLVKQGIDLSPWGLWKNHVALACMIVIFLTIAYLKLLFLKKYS
Description: Caco-2-BCRP assay with and without Ko143. Type of data set: in vitro ADME. As to conditions: human, Caco-2, Ko143 0 μM.

Another data set has as its target T5, recombinant AEP enzyme (Homo sapiens, UniProt Q99538).
T5 sequence (Q99538 18-433): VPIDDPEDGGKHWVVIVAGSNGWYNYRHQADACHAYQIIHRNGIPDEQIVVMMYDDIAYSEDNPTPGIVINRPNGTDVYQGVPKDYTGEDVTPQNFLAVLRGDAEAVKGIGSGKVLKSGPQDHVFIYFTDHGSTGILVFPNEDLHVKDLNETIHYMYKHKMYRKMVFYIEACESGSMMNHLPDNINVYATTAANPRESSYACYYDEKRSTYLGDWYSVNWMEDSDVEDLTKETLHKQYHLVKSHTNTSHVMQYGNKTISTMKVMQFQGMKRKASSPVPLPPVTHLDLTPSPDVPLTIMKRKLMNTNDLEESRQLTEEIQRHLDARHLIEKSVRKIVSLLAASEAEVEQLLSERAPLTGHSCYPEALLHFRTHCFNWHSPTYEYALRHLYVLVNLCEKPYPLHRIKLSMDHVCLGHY
Description: In vitro AEP enzymatic inhibition assay. It counts as biochemical. The conditions noted are these: read-out: IC50 toward recombinant AEP enzyme (in vitro).

The nature of data set [15]: Stability in mouse hepatocytes. It counts as in vitro ADME.
[16] abbreviates: aqueous buffer, pH 7.4, read-out: Solubility (pH, media).
The mark [17] stands for this setting: read-out: Stability-Hepatocytes T1/2.

Where two headings read alike, the source gives them in different places.

T2 sequence (P08183 whole entry): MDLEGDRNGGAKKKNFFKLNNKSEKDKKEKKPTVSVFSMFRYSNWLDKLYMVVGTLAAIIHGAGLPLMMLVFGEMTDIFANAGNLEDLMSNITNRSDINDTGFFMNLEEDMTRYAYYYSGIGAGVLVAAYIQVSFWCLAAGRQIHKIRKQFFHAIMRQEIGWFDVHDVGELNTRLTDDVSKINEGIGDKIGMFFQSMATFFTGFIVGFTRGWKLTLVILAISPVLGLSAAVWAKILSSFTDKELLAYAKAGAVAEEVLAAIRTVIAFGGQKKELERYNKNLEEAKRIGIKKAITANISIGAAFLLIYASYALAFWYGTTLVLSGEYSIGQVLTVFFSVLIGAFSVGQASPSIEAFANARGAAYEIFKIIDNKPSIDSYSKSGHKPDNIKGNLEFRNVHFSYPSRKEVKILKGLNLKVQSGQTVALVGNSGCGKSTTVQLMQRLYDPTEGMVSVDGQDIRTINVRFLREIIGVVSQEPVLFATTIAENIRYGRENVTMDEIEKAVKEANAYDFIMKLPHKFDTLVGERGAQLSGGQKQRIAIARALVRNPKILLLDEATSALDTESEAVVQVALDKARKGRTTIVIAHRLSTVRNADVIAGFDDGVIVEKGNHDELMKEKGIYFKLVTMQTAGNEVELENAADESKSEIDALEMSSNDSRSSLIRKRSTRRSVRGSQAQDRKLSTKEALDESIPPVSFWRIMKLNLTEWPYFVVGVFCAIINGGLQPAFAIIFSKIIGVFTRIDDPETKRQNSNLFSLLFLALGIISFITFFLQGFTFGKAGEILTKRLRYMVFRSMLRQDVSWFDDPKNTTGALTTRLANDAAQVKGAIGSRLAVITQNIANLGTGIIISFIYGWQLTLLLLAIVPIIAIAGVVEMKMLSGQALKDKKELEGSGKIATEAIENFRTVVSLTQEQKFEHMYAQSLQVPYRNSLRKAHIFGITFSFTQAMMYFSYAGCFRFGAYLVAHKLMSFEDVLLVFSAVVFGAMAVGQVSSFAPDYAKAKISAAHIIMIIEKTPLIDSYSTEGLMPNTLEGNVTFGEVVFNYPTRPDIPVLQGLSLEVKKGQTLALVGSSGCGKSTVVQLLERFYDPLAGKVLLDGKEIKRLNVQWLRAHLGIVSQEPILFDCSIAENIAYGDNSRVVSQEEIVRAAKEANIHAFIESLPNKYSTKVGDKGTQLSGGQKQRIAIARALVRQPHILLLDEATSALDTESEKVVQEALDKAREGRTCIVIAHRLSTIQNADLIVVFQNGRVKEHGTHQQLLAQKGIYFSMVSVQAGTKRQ
Chain of hERG K+ channel (Q12809 whole entry): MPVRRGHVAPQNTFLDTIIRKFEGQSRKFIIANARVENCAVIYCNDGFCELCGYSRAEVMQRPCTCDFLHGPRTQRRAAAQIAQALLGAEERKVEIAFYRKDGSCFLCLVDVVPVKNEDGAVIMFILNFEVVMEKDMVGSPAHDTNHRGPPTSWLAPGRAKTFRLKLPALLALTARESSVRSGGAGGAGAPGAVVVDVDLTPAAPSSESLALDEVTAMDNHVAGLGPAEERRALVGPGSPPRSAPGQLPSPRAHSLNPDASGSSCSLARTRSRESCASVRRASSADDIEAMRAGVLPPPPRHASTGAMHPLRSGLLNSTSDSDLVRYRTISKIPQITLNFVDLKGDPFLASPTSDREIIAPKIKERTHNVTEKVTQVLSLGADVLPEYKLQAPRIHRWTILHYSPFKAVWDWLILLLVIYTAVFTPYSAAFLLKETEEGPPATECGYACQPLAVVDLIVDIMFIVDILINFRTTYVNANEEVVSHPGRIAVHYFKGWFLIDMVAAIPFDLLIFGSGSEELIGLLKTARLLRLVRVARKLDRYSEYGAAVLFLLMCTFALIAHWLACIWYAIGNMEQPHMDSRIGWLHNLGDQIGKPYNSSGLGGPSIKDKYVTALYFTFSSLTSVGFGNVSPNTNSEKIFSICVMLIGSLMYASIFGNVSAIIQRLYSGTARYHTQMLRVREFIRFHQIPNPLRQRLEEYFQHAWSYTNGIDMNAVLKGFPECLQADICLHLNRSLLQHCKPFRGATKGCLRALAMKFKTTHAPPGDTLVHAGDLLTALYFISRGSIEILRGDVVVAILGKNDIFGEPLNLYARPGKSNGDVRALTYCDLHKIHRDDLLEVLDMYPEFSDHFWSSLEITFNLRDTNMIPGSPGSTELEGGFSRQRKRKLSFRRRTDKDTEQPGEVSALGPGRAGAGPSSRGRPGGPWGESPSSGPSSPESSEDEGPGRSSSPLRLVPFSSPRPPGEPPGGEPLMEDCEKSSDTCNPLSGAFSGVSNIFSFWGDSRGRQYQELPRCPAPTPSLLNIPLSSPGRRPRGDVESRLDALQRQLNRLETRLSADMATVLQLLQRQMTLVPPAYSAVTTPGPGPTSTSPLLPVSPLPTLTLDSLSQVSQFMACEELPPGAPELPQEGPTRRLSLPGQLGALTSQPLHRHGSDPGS
Description for recombinant AEP enzyme: AEP activity was assessed as previously described [21]. Tissue homogenates (10 ​μg protein) were incubated with 20 ​μM AEP-specific fluorogenic substrate in 200 ​μL of optimized assay buffer (20 ​mM citric acid, 60 ​mM Na2HPO4, 1 ​mM EDTA, 0.1 ​% CHAPS, 1 ​mM DTT; pH 6.0) to quantify enzymatic activity. Reactions were performed at 37 ​°C in a temperature-controlled microplate reader (BioTek Synergy HTX Multimode Reader, Agilent, California, USA). AEP-mediated cleavage of the substrate, liberating fluorescent 7-amino-4-methylcoumarin (AMC), was monitored kinetically by measuring emission at 460 ​nm (excitation: 380 ​nm) every 5 ​min over 60-min. Fluorescence values were normalized to background signal from substrate-free controls, and enzyme activity was calculated as the rate of AMC generation (RFU/min/μg protein) during the linear phase of the reaction.

`CNc1nnc(Nc2cc(CO)c(N3CCOCC3)c3nonc23)s1` [11a] yielded a 50% inhibitory concentration (IC50) on AEP [1] of 45 nM. In “Solubility (pH 7.4, PBS)” (setting [16]), the solubility amounted to 150 mg/mL. In addition, the microsomal CLint in data set [2] came out at 12.8 µL/min/mg; in data set [3], 19.9 µL/min/mg. The half-life in data set [2] was > 3 h; in [3] it was 1.93 h; in [4], 5.67 h; in data set [5] (setting [17]), > 8 h; in [6], > 8 h; in [7], > 8 h. For the same compound, the intrinsic metabolic clearance (hepatocyte CLint) in data set [4] was 4.1 µL/min/1e6 cells; in data set [5], 3 µL/min/1e6 cells. Further, the “Plasma Protein F u, plasma(%)” value was 43.3% in data set [8] and 26.9% in data set [9]. For the same compound, the Papp in [10] is 1.62 ×10⁻⁶ cm/s. In addition, the apical-to-basolateral permeability (Papp A→B) in “Caco-2 permeability” is 10.6 ×10⁻⁶ cm/s; on P-glycoprotein (MDR1) it was 0.78 ×10⁻⁶ cm/s. On P-glycoprotein (MDR1), this compound yielded an apparent permeability from basolateral to apical (Papp B→A) of 29.2 ×10⁻⁶ cm/s. On hERG K+ channel, the “hERG IC50” value is given as “negative”. Further, the concentration at 2 h in [11] stood at 161 ng/mL. Further, the “AEP enzymatic activity in the brain” value on AEP [12] (acute P.O. 7.5 and 15 mg/kg, dose-dependent) is reported as “substantially inhibited”. Also, the “Active AEP band intensity, hippocampus immunoblotting” value at AEP [12] (acute P.O.) is recorded as “reduced”. For the same compound, the “AEP activation, APP N585 and Tau N368 fragmentation, hippocampus immunoblotting” value at AEP [13] is “gradually reduced”. Besides, in the data set with 3xTg mice, the “Cognitive function in the Y maze” value is on record as “significantly improved”. In [14] (11a at 10 mg/kg), the “Brain Cmax” value is 27.012 ng/mL. The “Brain AUC” value in data set [14] (oral administration) is given as 128.980. Also, the “Plasma AUC” value in data set [14] (oral administration) was 516.028.
At BCRP, `CC(C)NCC(O)COc1cccc2ccccc12` (centres unmarked) [Propranolol, reference compound] yielded an apparent permeability from apical to basolateral (Papp A→B) of 29.3 ×10⁻⁶ cm/s and a Papp B→A of 30.5 ×10⁻⁶ cm/s. For the same compound, the recovery on BCRP (read-out: Recovery (%) A→B) was determined as 93.5%. In addition, the recovery at BCRP (read-out: Recovery (%) B→A) amounted to 102%.
Consider `CC(C)(C)NCC(O)COc1cccc2c1CC(O)C(O)C2` (centres unmarked) [Nadolol, reference compound], for which, on BCRP, the apparent permeability from apical to basolateral (Papp A→B) came out at 0.272 ×10⁻⁶ cm/s and the Papp B→A was determined as 0.679 ×10⁻⁶ cm/s. The recovery at BCRP (read-out: Recovery (%) A→B) was 91.5%. For the same compound, the recovery on BCRP (read-out: Recovery (%) B→A) is 106%.
Turning to `OCc1cc(Nc2nnc(N3CCCC3)s2)c2nonc2c1N1CCOCC1` [11a-pentyl], the IC50 was 14.7 nM at recombinant AEP enzyme, 55 nM against AEP [1] and > 10000 nM on hERG K+ channel. Further, the solubility in the data set “Solubility (pH 7.4, PBS)” (setting [16]) was found to be 5.03 mg/mL; in “Solubility (pH 7.4, PBS)” (pH 7.4, aqueous buffer, pH7.4, read-out: Solubility (pH, media)) it was 12.5 mM. Besides, the microsomal CLint in data set [2] was found to be 45.5 µL/min/mg; in data set [3] it was 302 µL/min/mg. Moreover, the half-life in [2] is 0.508 h; in data set [3], 0.0765 h; in data set [4], > 0.738 h; in [15] (setting [17]), > 0.81 h; in data set [6] it was > 8 h; in data set [7], > 8 h. Besides, the hepatocyte CLint in data set [4] was found to be 31.3 µL/min/1e6 cells; in [15] it was 28.5 µL/min/1e6 cells. Also, the “Plasma Protein F u, plasma(%)” value in [8] is reported as 6.4%; in [9] it was 20%. Also, the Papp in [10] was 10.4 ×10⁻⁶ cm/s. In addition, the efflux ratio in “Caco-2 permeability” is 1.28; on P-glycoprotein (MDR1) (third value of the cell, not given, read-out: Permeability-MDR1-MDCKII, value after the brackets (efflux ratio)), 42.1. The Papp A→B in the data set “Caco-2 permeability” worked out at 11.8 ×10⁻⁶ cm/s; at P-glycoprotein (MDR1) it was 1.44 ×10⁻⁶ cm/s. For the same compound, the Papp B→A in the data set “Caco-2 permeability” (value after the slash, head names only a-b, read-out: Permeability-Caco-2 Papp, second value of the cell (taken as b-a)) is 14.8 ×10⁻⁶ cm/s; at P-glycoprotein (MDR1) it was 60.5 ×10⁻⁶ cm/s.

(Values after publication PMC12664493, “Asparagine endopeptidase (AEP) inhibitor formulation via zein-based nanoparticle improves the therapeutic efficacy toward Alzheimer's disease” (Neurotherapeutics, 2025).)
